Measured values reported in patent US20210222184A1, “COMPOSITIONS AND METHODS FOR EXPRESSING TRANSGENES USING REGULATORY ELEMENTS FROM RUBISCO ACTIVASE GENES” (DOW AGROSCIENCES LLC, priority 2018, published 2021).

Legend:
GFP = GFP driven by AtUbi10/AtuOrf23 in both constructs; Typhoon scanner, 6th day after infiltration
Protocol: N. benthamiana plants were grown in the greenhouse under 16 hour photoperiod, 27° C./24° C. Twenty four day old plants were used for infiltration. The 3-4 top-most leaves were infiltrated using two Agrobacterium strains. The first strain was used in all infiltrations and carried the pDAB112236 construct expressing P19 silencing suppressor (Silhavy et al, (2002), EMBO J, 21, 3070-3080). The second Agrobacterium strain was either the experimental strain carrying pDAB116647 (SEQ ID NO:12) or a strain carrying the control pDAB110167 binary vector (FIG. 6). The pDAB110167 was identical to the pDAB116647 (SEQ ID NO:12) except that it had the reporter tagRFP/AAD12 fusion gene driven by the ScBV (Sugar Cane Bacilliform Virus) promoter fused to the Maize Streak Virus (MSV) 5′ leader engineered to contain maize Alcohol dehydrogenaseI (AdhI) gene intron 6 was paired with the StPinII terminator fragment (abbreviated ScBV/StPinII) to drive expression of the tagRFP/AAD12 reporter gene.
For N. benthamiana leaf infiltrations Agrobacterium strains containing either the pDAB116647 or pDAB110167 were mixed in equal proportions with an Agrobacterium strain that carried a plasmid that contained a gene encoding the P19 silencing suppressor Voinnet et al, (1999), Proc Natl Acad Sci USA, 96, 14147-14152. The mixing ratios were based on Optical Density (OD) readings. The density of all Agrobacterium cultures was adjusted to OD 2.0. After infiltration plants were maintained in a Conviron until leaves were collected on the 6th day after infiltration. Fluorescence data were collected using a Typhoon scanner from 30 leaves per construct with 3-5 one inch disks per leaf.
All samples from N. benthamiana were scanned on 3 channels: chlorophyll (488 nm blue laser, 670 nm BP30, 580 nm split), GFP (488 nm blue laser, 520 nm BP40, 580 nm split), and tagRFP (532 nm green laser, 580 nm BP30). The PhotoMultiplier Tube (PMT) setting used for N. benthamiana was 340/340/400. Background adjustments were made by subtracting calculated means for non-treated and empty vector controls from test treatment values. The values from each leaf were averaged to generate a mean fluorescence value.

[1] = system: tagRFP/AAD12 reporter gene; assay: N. benthamiana leaf infiltration transient assay, RFP fluorescence; assay type: in vivo; conditions: for RFP Mean / RFP Median: Typhoon scanner fluorescence, leaves collected 6th day after infiltration, co-infiltrated with P19 silencing suppressor strain
From the text: Twenty four day old plants were used for infiltration.

[2] = system: transgenic soybean plants; assay: 2,4-D herbicide tolerance of T1 transgenic soybean plants; assay type: in vivo, Glycine max; conditions: 2240 g ae/ha 2,4-D foliar
From the text: To assess T1 Soybean Herbicide Tolerance, T1 seed generated from self-pollination of single copy T0 events were planted in an artificial soil mix (MetroMix 360™) contained in 4-inch square pots. The T1 generation is a segregating population of the homozygous, hemizygous and non-transgenic plants. To eliminate the null individuals, the T1 population received a foliar application of 411 g active ingredient (ai)/ha glufosinate ammonium (Liberty® 280) when plants reached the first trifoliate leaf stage. Four days after application (DAA) surviving plants were sampled for molecular analysis to determine transgene zygosity and to confirm transgene copy number.
For each event, 8 homozygous and 8 hemizygous plants were sampled for protein analyses, and the following day (third trifoliate stage), half of the plants received a foliar application of 2240 g acid equivalent (ae)/ha 2,4-D dimethylamine (DMA) salt (Weedar® 64). The remaining plants received no spray application. Some plants were also sprayed with deionized water as a sprayer application control. In addition to the transformed events, the soybean variety, ‘Maverick’, was included in each treatment as a non-transformed control.
Foliar applications were made with a Mandel track sprayer set to deliver a spray solution at 187 L/ha to a spray area of 0.503 m^2 using an 8002E nozzle and a spray height of 18 inches above the plant canopy. Plant response to the 2,4-D application was evaluated at 5 hours after application (HAA) and 1, 7, and 14 DAA. Data were collected by assessment of visual injury and/or growth reduction as compared to untreated controls on a scale of 0% to 100% with 0% corresponding to no injury or growth reduction and 100% corresponding to complete plant death. Plants were maintained at 28° C./25° C. (day/night) under a 14 h photoperiod and sub-irrigated with water or fertilizer as needed.

Substance | GFP Mean (GFP) | GFP Median (GFP) | RFP Mean [1] | RFP Median [1] | % Injury Mean 1 DAA ([2]; Hemi) | % Injury Mean 5 HAA ([2]; Hemi) | % Injury Mean 7 DAA ([2]; Hemi) | % Injury Mean 14 DAA ([2]; Hemi) | % Injury Mean 1 DAA ([2]; Homo) | % Injury Mean 5 HAA ([2]; Homo) | % Injury Mean 7 DAA ([2]; Homo) | % Injury Mean 14 DAA ([2]; Homo) | RFP fluorescence relative to the control (pDAB110167) construct ([1]; mean and median, p-Value <0.0001)
pDAB110167: control binary vector; tagRFP/AAD12 driven by ScBV promoter, MSV 5' leader with AdhI intron 6, StPinII terminator [reference compound] | 166966846 | 148985095 | 24746396 | 21007653 |  |  |  |  |  |  |  |  | 
pDAB116632: plasmid with GmRubAct promoter and 5' UTR fused to AAD12 gene, terminated with GmRubAct terminator |  |  |  |  | 18.13% | 15.0% | 4.38% | 3.75% | 12.0% | 8.67% | 2.33% | 1.67% | 
pDAB116647: binary vector with tagRFP/AAD12 reporter gene driven by GmRubAct promoter, 5' UTR and terminator | 161956091 | 156309149 | 40982229 | 39409305 |  |  |  |  |  |  |  |  | significantly higher
